The source of these data is patent US20150376216A1, “SUGAR-ANALOG PHOSPHORUS-CONTAINING HETEROCYCLES HAVING AN ANTI-METASTATIC ACTIVITY” (CENTRE NATIONAL DE LA RECHERCHE SCIENTIRIQUE, priority 2013, published 2015).

Molecules are shown by their SMILES. Read-outs that look alike come from different tables or passages of the source.

The subject of one data set is Gli4 cells. The data set is described as follows: Gli4 intracranial model. Format: in vivo, mice. On the procedure:
2×10^5 Gli4 cells were injected into a group of mice (right striatal injection, injection coordinates: bregma 0 L-L: L: −1.5 mm P: −3.5-2.5). The mice were immediately treated for four weeks at a rate of three injections at 10 mg/kg of compound 3.48a per week (formulation 1, group B) or using 100 μl of NaCl according to the same treatment protocol (group A) and sacrificed after ten weeks.
In the group of control mice (group A), dispersed Gli4 cells are observed, which migrated along the corpus callosum and passed into the other hemisphere. […] This migration reflects migration along the white matter, as observed in human glioblastoma multiformes (dispersion as an intra-fascicular growth along the white matter).

Another data set relates to SNB75 human GBM line. The data set is described as follows: Boyden chamber migration test, SNB75. Format: cell-based. Particulars: for Ki: SNB75, 24 hours, read-out: Inhibition constant Ki, migration. On the procedure:
(§1) The effects of compounds 3.48a, 4.2a and 5.6d on the migration of cancer cells (human glioblastoma line SNB75 or primary culture of human glioblastoma Gli4F1, on the one hand, and MDAMB 435 and A431 on the other hand), were determined by performing a standard migration test in a Boyden chamber (treatment of the cells for 24 hours).
(§2) For this test, the compounds were dissolved in vitro and used in culture in 0.3% of DMSO. The interior of the inserts was covered with the extracellular matrix protein studied (laminin-1, vitronectin or fibronectin). The cells pretreated at various concentrations and untreated (controls) were deposited in the inserts covered with said protein at a rate of 50 000 cells/500 μl/insert in a medium containing 0.1% of BSA (bovine serum albumin).
(§3) 500 μl of medium containing 10% fetal calf serum were then placed in each well of a Companion plate so as to allow the formation of a chemotactic gradient across the porous membrane. After 24 hours of migration in the incubator at 37° C., the supernatent was removed and the inserts rinsed with PBS on each face. The cells were counted with a microscope (Zeiss Axiophot, magnification ×200). This gives a percentage of migration relative to the untreated cells.
(§4) Table 2 below gives, for compound 3.48a, the values for the inhibition constants (Ki) for the migration of a human GBM line (SNB75), of GBM stem cell lines (Gli4, Gli7) and of a breast cancer line MDAMB231, in a Boyden chamber, on various extracellular matrix protein supports. Tables 3 and 4 below give, for compounds 4.2a and 5.6d, the values of the inhibition constants (Ki) for the migration of a melanoma line (MDAMB-435) or of an epidermoid cancer line (A431), in a Boyden chamber, on various extracellular matrix protein supports. The inhibitory effect depends on the line and the stem cells used, but also on the extracellular matrix protein support used.

In another data set the test system is Gli7 GBM stem cells. The data set is described as follows: Boyden chamber migration test, Gli7. Format: cell-based, human. Particulars: 24 hours, read-out: Inhibition constant Ki, migration. On the procedure:
as §1, §2, §3, §4

Another data set can be described thus: Acute in vivo toxicity. Particulars: healthy mice; 50, 25, 10, 5 and 1 mg/kg; maximum dose 50 mg/kg. On the procedure: Studies of the acute toxicity of compounds 3.48a and 4.2a were performed on healthy mice for a concentration range of 50, 25, 10, 5 and 1 mg/kg.
The next data set relates to SNB75 cells. The data set is described as follows: SNB75 subcutaneous model. Format: in vivo, mice. The method, then: Nude female mice 4-5 weeks old with an average weight of […], supplied by the R. Janvier breeding center, were used. The mice were kept in a pathogen-free environment and with food and water present ad libitum. The experiments were commenced after one week of acclimatizing the mice to their new environment.
A suspension of 5×10^6 SNB75 cells in 100 μl of sterile PBS (phosphate-buffered saline, provided by Fisher) was injected into each mouse (subcutaneous administration without anesthesia). Once the mice presented tumors with volumes of between […], groups were formed so that each of them contained an equivalent number of large, medium and small tumors. The protocol was conducted with five groups of seven mice. The five groups of mice were treated using one of the five formulations described below:
Group A: Treatment by injection of 100 μl of NaCl (control N° 1).
Group B: Treatment with compound 3.48a at a rate of 10 mg/kg with volumes of 100 to 150 μl of formulation 2 according to the weight of the mice.
Group C: Treatment with compound 3.48a at a rate of 5 mg/kg with volumes of 100 to 150 μl of formulation 2 according to the weight of the mice.
Group D: Treatment with temozolomide at a rate of 20 mg/kg with volumes of 100 to 150 μl according to the weight of the mice. Temozolomide is a comparative anticancer active principle sold under the name Temodal by the laboratory Schering Plough. It is indicated for treating glioblastoma multiforme.
Group E: Treatment by injection of 100 to 150 μl according to the weight of the mice of formulation 2 not containing compound 3.48a (control N° 2).
Each batch was treated by intravenous injection into the caudal vein of 100 to 150 μl of solution (precision syringe and G25X1 needle ultrafine wall, VWR). Three injections per week for four weeks were performed. The mice were weighed at each injection. The sizes of the tumors were measured twice a week for a period of four weeks. The mice were sacrificed after four weeks and the tumors and organs (liver, kidney, spleen, brain, intestine, heart, muscles) were removed. A histological analysis was performed on these organs.

The test system of another data set is GBM line C6. The data set is described as follows: Boyden chamber migration test, C6. Format: cell-based, rat. Particulars: various extracellular matrix substrates.
Data set [1] is described as follows: Solubility / formulation behaviour. It is filed as physicochemical. On the procedure:
The following two formulations are particularly suited to compounds 3.48a and 4.2a and allow their in vivo administration, at concentrations of about 20-100 mg/kg, intravenously: […]

Another data set relates to Gli4 GBM stem cells. The data set is described as follows: Boyden chamber migration test, Gli4. It is filed as cell-based, human. Particulars: 24 hours, read-out: Inhibition constant Ki, migration. The method, then:
as §1, §2, §3, §4

The mark [2] stands for this setting: 10 and 5 mg/kg i.v. (groups B and C), three injections per week for four weeks.

Regarding `O=[P@@]1(c2ccccc2)O[C@H](COCc2ccccc2)[C@@H](OCc2ccccc2)[C@H](OCc2ccccc2)[C@H]1O` [Compound 3.48a, 4,5-bis-benzyloxy-6-benzyloxymethyl-2-phenyl-2-oxo-2λ^5-[1,2]oxaphosphinan-3-ol], in the data set with Gli4 cells (10 mg/kg, three injections per week, four-week treatment (formulation 1)), the “Cell migration in brain during treatment” value is recorded as “made it possible to inhibit cell migration”. The “Cell growth and migration after stopping the treatment” value in the data set on Gli4 cells (final six weeks after the four-week treatment at 10 mg/kg) was “resumption of the growth and migration of the cells was observed”. Besides, in the data set on SNB75 human GBM line (Homo sapiens, SNB-75, SNB75 line, on fibronectin or vitronectin, read-out: Concentration for a 50% decrease in migration of the cancer cells), the IC50 lay in the range of 1 to 100 nM. Besides, the Ki at SNB75 human GBM line (support Fibronectin) worked out at 27 nM; at SNB75 human GBM line (support Laminin) it was 23000 nM; at SNB75 human GBM line (support Vitronectin), 87 nM; in the data set on Gli7 GBM stem cells (support Fibronectin), 37 nM; in the data set with Gli7 GBM stem cells (support Laminin), 310 nM; with Gli7 GBM stem cells (support Vitronectin), 371 nM. The Ki turned out to be 1 nM with Gli4 GBM stem cells (support Fibronectin), 11 nM with Gli4 GBM stem cells (support Laminin) and 5 nM with Gli4 GBM stem cells (support Vitronectin). Further, the “Mortality, acute toxicity” value in the data set “Acute in vivo toxicity” is “No mortality was observed”. The Mortality entry with SNB75 cells (setting [2]) was “none of the mice died”. Besides, the Weight loss entry with SNB75 cells (setting [2]) is recorded as “no weight loss was observed”. The “Growth of the primary tumor” value with SNB75 cells (10 and 5 mg/kg i.v. (groups B and C), three injections per week, after four weeks, vs control groups) was “a very great reduction in the growth of the primary tumor”. The Development of metastases result with SNB75 cells (10 and 5 mg/kg i.v. (groups B and C), controls all developed metastases in liver and intestine) is “None of the mice treated with compound 3.48a (groups B and C) developed metastases”. Also, the “Metastases in the liver (FIG. 1A)” value in the data set on SNB75 cells (a mouse from group B (10 mg/kg), eight weeks after implantation) is recorded as “absence of metastases in the liver”. Further, the “Inhibition of cell migration” value in the data set on GBM line C6 is on record as “inhibits the cell migration”. Further, the Complexation in cyclodextrins entry in data set [1] is recorded as “non-complexible in cyclodextrins”. Besides, the Solubility result in data set [1] (water, water-soluble solvents) was “insoluble in water, in numerous water-soluble solvents”.
